Calls of active or inactive are those of the source. No cut-off for these calls is given here.
Experiments:
Toxoplasma gondii [1] = assay: Antiparasitic activity against Toxoplasma gondii RH infected in BALB/c mouse assessed as reduction of bradyzoite gene copies in heart at 50 mg/kg, po administered every 12 and 24 hrs for 5 days starting from 24 hrs post infection by real-time qPCR analysis; type: functional, organism-based; details: time 5.0 day
[2] = Cmax in BALB/c mouse brain at 50 mg/kg, po measured upto 24 hrs by LC-MS/MS analysis; type: ADME, organism-based; set-up: time < 24 hrs, dose 50 mg/kg, route po; details: in vivo
[3] = Toxicity in BALB/c mouse assessed as disseminated necrosis of hepatocytes at 50 mg/kg, po administered for 5 days and measured after 1 day by hematoxylin-eosin staining based microscopic analysis; type: organism-based; details: in vivo, 120 h, time 5 day
Toxoplasma gondii [4] = assay: Antiparasitic activity against Toxoplasma gondii DX infected in C3H/HeOuJ mouse assessed as prolongation of survival at 25 to 50 mg/kg, po administered for 5 days starting from 24 hrs post infection by Kaplan-Meier method; type: functional, organism-based; details: dose 25-50 mg/kg, time 5.0 day
[5] = Toxicity in BALB/c mouse assessed as changes in serum AST level at 50 mg/kg, po administered for 5 days and measured on day 1 and day 14 by ELISA method; type: organism-based; details: in vivo, 120 h, time 5 day
[6] = AUC in BALB/c mouse serum at 50 mg/kg, po measured upto 60 mins by LC-MS/MS analysis; type: ADME, organism-based; set-up: time < 60 min, dose 50 mg/kg, route po; details: in vivo, 1 h
[7] = AUC in BALB/c mouse serum at 25 mg/kg, po measured upto 60 mins by LC-MS/MS analysis; type: ADME, organism-based; set-up: dose 25 mg/kg, time < 60 min, route po; details: in vivo, 1 h
Toxoplasma gondii [8] = assay: Antiparasitic activity against Toxoplasma gondii RH infected in BALB/c mouse assessed as reduction in number of bradyzoite gene copies in muscles at 25 mg/kg, po administered every 24 hrs for 5 days starting from 24 hrs post infection by real-time qPCR analysis; type: functional; details: time 5 day
[9] = AUC in BALB/c mouse brain at 50 mg/kg, po measured upto 24 hrs by LC-MS/MS analysis; type: ADME, organism-based; set-up: dose 50 mg/kg, time < 24 hrs, route po
Toxoplasma gondii [10] = assay: Antiparasitic activity against Toxoplasma gondii RH infected in BALB/c mouse assessed as decrease in number of bradyzoite gene copies in brain at 50 mg/kg, po administered every 24 hrs for 5 days starting from 24 hrs post infection by real-time qPCR analysis; type: functional, organism-based; details: time 5.0 day
[11] = Tmax in BALB/c mouse serum at 50 mg/kg, po measured upto 60 mins by LC-MS/MS analysis; type: ADME, organism-based; details: in vivo, 1 h
[12] = Elimination half-life in BALB/c mouse serum at 25 mg/kg, po measured upto 60 mins by LC-MS/MS analysis; type: ADME, organism-based; details: in vivo, 1 h
[13] = Elimination half-life in BALB/c mouse brain at 50 mg/kg, po measured upto 24 hrs by LC-MS/MS analysis; type: ADME, organism-based; details: read-out: beta t1/2 (converted)
[14] = Cmax in BALB/c mouse serum at 50 mg/kg, po measured upto 60 mins by LC-MS/MS analysis; type: ADME, organism-based; set-up: time < 60 min, dose 50 mg/kg, route po; details: in vivo, 1 h
[15] = Toxicity in BALB/c mouse assessed as changes in liver weight at 50 mg/kg, po administered for 5 days and measured after 1 day; type: organism-based; details: in vivo, 120 h, time 5 day
[16] = Oral bioavailability in BALB/c mouse brain at 25 mg/kg measured upto 24 hrs by LC-MS/MS analysis; type: ADME, organism-based
[17] = Toxicity in BALB/c mouse assessed as disseminated necrosis of hepatocytes at 50 mg/kg, po administered for 5 days and measured after 14 days by hematoxylin-eosin staining based microscopic analysis; type: organism-based; details: in vivo, 120 h, time 5 day
Toxoplasma gondii [18] = assay: Antiparasitic activity against Toxoplasma gondii RH infected in human Hs27 cells assessed as parasitic growth inhibition incubated for 24 hrs followed by [5,6-3H] uracil addition and measured after 72 hrs by liquid scintillation counter analysis; type: functional, organism-based
L929 = assay: Cytotoxicity against mouse L929 cells assessed as reduction in cell viability incubated for 24 hrs by MTT assay; type: toxicity, cell-based; details: l929, 24 h
[19] = Oral bioavailability in BALB/c mouse serum at 50 mg/kg measured upto 60 mins by LC-MS/MS analysis; type: ADME, organism-based
[20] = Elimination half-life in BALB/c mouse serum at 50 mg/kg, po measured upto 60 mins by LC-MS/MS analysis; type: ADME, organism-based; details: in vivo, 1 h
Toxoplasma gondii [21] = assay: Antiparasitic activity against Toxoplasma gondii RH infected in BALB/c mouse assessed as decrease in IFNgamma level in serum at 25 to 50 mg/kg, po administered for 5 days starting from 24 hrs post infection by ELISA method; type: functional, organism-based; details: dose 25-50 mg/kg, time 5.0 day
Toxoplasma gondii [22] = assay: Antiparasitic activity against Toxoplasma gondii RH infected in BALB/c mouse assessed as prolongation of animal survival at 25 to 50 mg/kg, po administered for 5 days starting from 24 hrs post infection by Kaplan-Meier method; type: functional, organism-based; details: dose 25-50 mg/kg, time 5.0 day
[23] = Toxicity in BALB/c mouse assessed as changes in body weight at 25 to 50 mg/kg, po administered for 5 days and measured on day 1 and day 14; type: organism-based; details: in vivo, 120 h, dose 25-50 mg/kg, time 5 day
[24] = Tmax in BALB/c mouse brain at 25 mg/kg, po measured upto 24 hrs by LC-MS/MS analysis; type: ADME, organism-based
[25] = Toxicity in BALB/c mouse assessed as changes in body weight at 1000 mg/kg, po administered once and observed for 10 days; type: organism-based; details: in vivo, 240 h, time 10 day
[26] = AUC in BALB/c mouse brain at 25 mg/kg, po measured upto 24 hrs by LC-MS/MS analysis; type: ADME, organism-based; set-up: time < 24 hrs, dose 25 mg/kg, route po
[27] = Cmax in BALB/c mouse brain at 25 mg/kg, po measured upto 24 hrs by LC-MS/MS analysis; type: ADME, organism-based; set-up: time < 24 hrs, dose 25 mg/kg, route po; details: in vivo
[28] = Oral bioavailability in BALB/c mouse serum at 25 mg/kg measured upto 60 mins by LC-MS/MS analysis; type: ADME, organism-based
[29] = Elimination half-life in BALB/c mouse brain at 25 mg/kg, po measured upto 24 hrs by LC-MS/MS analysis; type: ADME, organism-based; details: read-out: beta t1/2 (converted)
Toxoplasma gondii [30] = assay: Antiparasitic activity against Toxoplasma gondii RH infected in BALB/c mouse assessed as reduction of daughter tachyzoites in blood at 25 to 50 mg/kg, po administered for 5 days starting from 24 hrs post infection by real-time qPCR analysis; type: functional, organism-based; details: dose 25-50 mg/kg, time 5.0 day
[31] = Toxicity in BALB/c mouse assessed as changes in size of hepatocyte nuclei at 50 mg/kg, po administered for 5 days and measured after 14 days by hematoxylin-eosin staining based microscopic analysis; type: organism-based; details: hepatocytes, 120 h, time 5 day
[32] = Tmax in BALB/c mouse brain at 50 mg/kg, po measured upto 24 hrs by LC-MS/MS analysis; type: ADME, organism-based
[33] = Toxicity in BALB/c mouse assessed as changes in size of hepatocyte nuclei at 50 mg/kg, po administered for 5 days and measured after 1 day by hematoxylin-eosin staining based microscopic analysis; type: organism-based; details: hepatocytes, 120 h, time 5 day
[34] = Toxicity in BALB/c mouse assessed as changes in liver weight at 50 mg/kg, po administered for 5 days and measured after 14 days; type: organism-based; details: in vivo, 120 h, time 5 day
Toxoplasma gondii [35] = assay: Antiparasitic activity against Toxoplasma gondii RH infected in BALB/c mouse assessed as survival rate at 50 mg/kg, po administered every 12 hrs for 5 days starting from 24 hrs post infection by Kaplan-Meier method; type: functional; details: 120 h, time 5 day
HS27 = assay: Cytotoxicity against human HS27 cells assessed as reduction in cell viability; type: toxicity, cell-based
[36] = Cmax in BALB/c mouse serum at 25 mg/kg, po measured upto 60 mins by LC-MS/MS analysis; type: ADME, organism-based; set-up: dose 25 mg/kg, time < 60 min, route po; details: in vivo, 1 h
[37] = Toxicity in BALB/c mouse assessed as changes in creatinine level at 50 mg/kg, po administered for 5 days and measured on day 1 and day 14 by colorimetric assay; type: organism-based; details: in vivo, 120 h, time 5 day
[38] = Oral bioavailability in BALB/c mouse brain at 50 mg/kg measured upto 24 hrs by LC-MS/MS analysis; type: ADME, organism-based
[39] = Tmax in BALB/c mouse serum at 25 mg/kg, po measured upto 60 mins by LC-MS/MS analysis; type: ADME, organism-based; details: in vivo, 1 h
[40] = Toxicity in BALB/c mouse assessed as increase in serum ALT level at 50 mg/kg, po administered for 5 days and measured after 14 days by ELISA method; type: organism-based; details: in vivo, 120 h, time 5 day

Cc1nc[nH]c1C(=O)NNC(=S)Nc1cccc(I)c1
Activity (Toxoplasma gondii [1]): Active | Cmax [2]: 174.33 ng/mg | Activity [3]: Toxic | Activity (Toxoplasma gondii [4]): Active | Activity [5]: Non-Toxic | AUC [6]: 170390 ng·h/mL | AUC [7]: 150550 ng·h/mL | Activity (Toxoplasma gondii [8]): 16 | AUC at 24 h [9]: 167 ng·h/mL | Activity (Toxoplasma gondii [10]): Active | Tmax [11]: 15 min | beta t1/2 [12]: 24.6 min | half-life [13]: 45.6 min | Cmax [14]: 35320 ng/mL | Activity [15]: Non-Toxic | bioavailability [16]: 0.46% | Activity [17]: Toxic | IC50 (Toxoplasma gondii [18]): 25.7 µM | CC30 (L929): 213.27 µM | bioavailability [19]: 17% | beta t1/2 [20]: 23.4 min | Activity (Toxoplasma gondii [21]): Active | Activity (Toxoplasma gondii [22]): Active | Activity [23]: Non-Toxic | Tmax [24]: 15 min | Activity [25]: Non-Toxic | AUC at 24 h [26]: 69.9 ng·h/mL | Cmax [27]: 94.16 ng/mg | bioavailability [28]: 30.1% | half-life [29]: 29.4 min | Activity (Toxoplasma gondii [30]): Active | Activity [31]: Toxic | Tmax [32]: 30 min | Activity [33]: Toxic | Activity [34]: Non-Toxic | survival at 50 mg/kg (Toxoplasma gondii [35]): 20% | CC30 (HS27): 209.45 µM | Cmax [36]: 30850 ng/mL | Activity [37]: Non-Toxic | bioavailability [38]: 0.98% | Tmax [39]: 15 min | Activity [40]: Toxic

Reference: ChEMBL document CHEMBL5247617, “4-Arylthiosemicarbazide derivatives - Pharmacokinetics, toxicity and anti-Toxoplasma gondii activity in vivo” (Eur J Med Chem, 2022)
